21 compounds from ChEMBL document CHEMBL4052692, “Synthesis and biological activity of peptide proline-boronic acids as proteasome inhibitors” (Bioorg Med Chem, 2017) can be followed below.

Each structure is given as a SMILES string.

In one experiment the test system is MGC-803. Kind of experiment: Cytotoxicity against human MGC803 cells after 72 hrs by MTT assay. Type of experiment: functional, cell-based. Particulars: MGC-803, 72 h. (In general: Tetrazolium assays rely on reduction of a dye to a coloured formazan, in cell work by metabolically active cells.)
The next experiment has as its system MDA-MB-231. Kind of experiment: Cytotoxicity against human MDA-MB-231 cells after 72 hrs by MTT assay. Particulars: MDA-MB-231, 72 h. Type of experiment: functional, cell-based.
The nature of experiment [1]: Selectivity ratio of IC50 for PGPH-like activity of 20S proteasome in human HL60 cells to IC50 for chymotrypsin-like activity of 20S proteasome in human HL60 cells.
The next experiment relates to HCT-116. Kind of experiment: Cytotoxicity against human HCT116 cells after 72 hrs by MTT assay. It counts as functional, cell-based. To be noted: HCT-116, 72 h.
The target in experiment [2] is T1, Proteasome Macropain subunit MB1 (Homo sapiens, UniProt P28074).
T1 sequence (P28074 whole entry): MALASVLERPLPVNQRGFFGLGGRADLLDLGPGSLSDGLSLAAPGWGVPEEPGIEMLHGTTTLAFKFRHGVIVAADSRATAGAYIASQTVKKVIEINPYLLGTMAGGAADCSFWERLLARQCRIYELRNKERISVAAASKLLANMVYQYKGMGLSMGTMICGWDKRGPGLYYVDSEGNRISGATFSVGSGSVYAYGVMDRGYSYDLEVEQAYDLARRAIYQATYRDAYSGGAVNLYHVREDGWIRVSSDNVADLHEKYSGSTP
Kind of experiment: Inhibition of chymotrypsin-like activity of 20S proteasome in human HL60 cells using Suc-LLVYaminoluciferin as substrate pretreated for 2 hrs followed by substrate addition by […]. Type of experiment: cell-based.

A short description of experiment [3]: Selectivity ratio of IC50 for trypsin-like activity of 20S proteasome in human HL60 cells to IC50 for chymotrypsin-like activity of 20S proteasome in human HL60 cells.
A short description of experiment [4]: Cytotoxicity against human 95-D cells after 72 hrs by MTT assay. It counts as functional, cell-based.
In the next experiment the test system is A549. Kind of experiment: Cytotoxicity against human A549 cells after 72 hrs by MTT assay. Type of experiment: functional, cell-based. To be noted: A549, 72 h.
In a further experiment the test system is HL-60. Kind of experiment: Cytotoxicity against human HL60 cells after 72 hrs by MTT assay. It counts as functional, cell-based. Particulars: HL-60, 72 h.

With `CC(C)C[C@H](NC(=O)N(C)Cc1ccccc1)C(=O)N[C@@H](Cc1ccc2ccccc2c1)C(=O)N1CCC[C@H]1B(O)O`, the 50% inhibitory concentration (IC50) in the experiment with MGC-803 worked out at 1.65 µM.

In turn, `O=C(N[C@@H](Cc1ccccc1)C(=O)N[C@@H](Cc1ccc2ccccc2c1)C(=O)N1CCC[C@H]1B(O)O)OCc1ccccc1` gave an IC50 with MGC-803 of 0.149 µM.

Compound `O=C(N[C@@H](Cc1ccccc1)C(=O)N1CCC[C@H]1B(O)O)N1CCc2ccccc2C1` showed an IC50 in the experiment with MGC-803 of over 10 µM.

For the compound `CC(C)C[C@H](NC(=O)OCc1ccccc1)C(=O)N[C@@H](Cc1ccc2ccccc2c1)C(=O)N1CCC[C@H]1B(O)O`, the IC50 in the experiment on MDA-MB-231 is 0.007 µM; in the experiment on MGC-803, 0.00976 to 0.01 µM; in the experiment on HCT-116, 0.069 µM; in experiment [2] it was 0.018 µM; in experiment [4], 0.012 µM; in the experiment with A549, 5.99 µM. The IC50 in the experiment on HL-60 is under 0.001 µM. Also, the “Ratio IC50” value in experiment [1] came out at 69.4; in experiment [3], 92.2.

Compound `CC(C)C[C@H](NC(=O)c1cnccn1)C(=O)N[C@@H](Cc1ccccc1)C(=O)N1CCC[C@H]1B(O)O` came in with an IC50 in the experiment on MGC-803 of 0.0272 µM.

Compound `O=C(N[C@@H](Cc1ccccc1)C(=O)N1CCC[C@H]1B(O)O)[C@H](Cc1ccccc1)NC(=O)N1CCc2ccccc2C1` came in with an IC50 with MGC-803 of 4.17 µM.

For the compound `CC(C)C[C@H](NC(=O)[C@H](Cc1ccccc1)NC(=O)c1cnccn1)B(O)O` [BORTEZOMIB], the half-maximal inhibitory concentration (IC50) in the experiment on MGC-803 is 0.008 to 0.0133 µM; with HCT-116 it was 0.001 µM; in experiment [4], 0.038 µM; with HL-60 it was 0.008 µM.

In turn, `O=C(N[C@@H](Cc1ccc2ccccc2c1)C(=O)N1CCC[C@H]1B(O)O)OCc1ccccc1` gave an IC50 with MGC-803 of over 10 µM.

In the experiment with MGC-803, `O=C(N[C@@H](Cc1ccccc1)C(=O)N1CCC[C@H]1B(O)O)N1CCOCC1` displayed a concentration for half-maximal inhibition (IC50) of over 10 µM.

On to `CC(C)C[C@H](NC(=O)[C@H](Cc1ccccc1)NC(=O)N1CCc2ccccc2C1)C(=O)N1CCC[C@H]1B(O)O`, for which the concentration for half-maximal inhibition (IC50) with MGC-803 is over 10 µM.

Take `O=C(N[C@@H](Cc1ccc2ccccc2c1)C(=O)N1CCC[C@H]1B(O)O)[C@H](Cc1ccccc1)NC(=O)N1CCc2ccccc2C1`: in the experiment on MGC-803, the IC50 is 2.42 µM.

Turning to `CC(C)C[C@H](NC(=O)N1CCc2ccccc2C1)C(=O)N[C@@H](Cc1ccc2ccccc2c1)C(=O)N1CCC[C@H]1B(O)O`, the midpoint of inhibition in the experiment with MGC-803, the IC50, lay at 1.43 µM.

In the experiment with MGC-803, `CN(Cc1ccccc1)C(=O)N[C@@H](Cc1ccc2ccccc2c1)C(=O)N1CCC[C@H]1B(O)O` showed an IC50 of 7.48 µM.

The compound `O=C(N[C@@H](Cc1ccc(O)cc1)C(=O)N1CCC[C@H]1B(O)O)[C@H](Cc1ccccc1)NC(=O)N1CCc2ccccc2C1` came in with a half-maximal inhibitory concentration (IC50) in the experiment on MGC-803 of 7.64 µM.

For the compound `O=C(N[C@@H](Cc1ccc2ccccc2c1)C(=O)N1CCC[C@H]1B(O)O)N1CCc2ccccc2C1`, in the experiment with MGC-803, the IC50 turned out to be 5.36 µM.

Regarding `CC(C)C[C@H](NC(=O)c1cnccn1)C(=O)N[C@@H](CC(C)C)C(=O)N1CCC[C@H]1B(O)O`, the IC50 in the experiment on MGC-803 was 4.43 µM.

With `CC(C)C[C@H](NC(=O)OCc1ccccc1)C(=O)N[C@@H](CC(C)C)C(=O)N1CCC[C@H]1B(O)O`, 0.0109 µM corresponded to half-maximal inhibition with MGC-803 (IC50).

`CC(C)C[C@H](NC(=O)c1cnccn1)C(=O)N[C@@H](Cc1ccc2ccccc2c1)C(=O)N1CCC[C@H]1B(O)O`: the IC50 in the experiment on MGC-803 came to 0.0296 µM.

In the experiment on MGC-803, `O=C(N[C@@H](Cc1ccccc1)C(=O)N1CCC[C@H]1B(O)O)c1cnccn1` gave an IC50 of over 10 µM.

For the compound `O=C(N[C@@H](Cc1ccccc1)C(=O)N[C@@H](Cc1ccc2ccccc2c1)C(=O)N1CCC[C@H]1B(O)O)c1cnccn1`, the IC50 in the experiment on MGC-803 was determined as 0.11 µM.

`O=C(N[C@@H](Cc1ccccc1)C(=O)N[C@@H](Cc1ccccc1)C(=O)N1CCC[C@H]1B(O)O)c1cnccn1` had an IC50 with MGC-803 of 0.478 µM.

Usually IC50 stands for the concentration that gives 50% inhibition.
